According to patent US8153818B2, “Triazolyl phenyl benzenesulfonamides” (ChemoCentryx, Inc., priority 2006, dated 2012):

Target: T1, CCR9 (Homo sapiens, UniProt P51686)
T1 construct: chemokine expressing cells (such as THP-1 cells for CCR2 assay or MOLT-4 cells for CCR9 assay); host or cells: MOLT-4
T1 sequence (P51686 1-369): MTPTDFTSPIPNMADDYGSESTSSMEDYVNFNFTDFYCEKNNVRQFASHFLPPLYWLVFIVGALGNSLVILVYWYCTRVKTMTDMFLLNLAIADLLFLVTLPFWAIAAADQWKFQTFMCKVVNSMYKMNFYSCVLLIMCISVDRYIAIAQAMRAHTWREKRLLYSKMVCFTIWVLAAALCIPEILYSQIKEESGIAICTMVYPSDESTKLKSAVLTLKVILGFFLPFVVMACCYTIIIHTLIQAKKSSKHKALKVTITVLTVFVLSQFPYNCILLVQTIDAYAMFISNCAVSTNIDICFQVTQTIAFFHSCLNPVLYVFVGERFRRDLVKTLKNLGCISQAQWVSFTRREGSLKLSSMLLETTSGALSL
Assay: CCR9 activity in one of the chemotaxis, binding or calcium mobilization assays
Format: cell-based
Conditions: assay not specified per compound
Summary of the method: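 Chemotaxis: THP-1 cells (CCR2, 0.1 nM MCP-1, 90 min) or MOLT-4 cells (CCR9, 50 nM TECK, 150 min) preincubated with compound 15 min RT, migration at 37 °C through 5-μm membrane, CyQUANT read; IC50 by nonlinear regression. Calcium flux: Fluo-4-loaded cells, 0.1 nM MCP-1 or 25 nM TECK. Binding: THP-1, ~50 pM [125I]MCP-1, 3 h, 4 °C.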

IC50, < 1000 nM:
Cn1cnnc1-c1cc(Cl)c(F)cc1NS(=O)(=O)c1ccc(C(C)(C)C)cc1 [Compound 76, 4-tert-butyl-N-(4-chloro-5-fluoro-2-(4-methyl-4H-1,2,4-triazol-3-yl)phenyl)benzenesulfonamide]
Cc1nnc(-c2cc(F)c(F)cc2NS(=O)(=O)c2ccc(C(C)(C)C)cc2)n1[C@H]1CCNC1 [Compound 77, (S)-4-tert-butyl-N-(4,5-difluoro-2-(5-methyl-4-(pyrrolidin-3-yl)-4H-1,2,4-triazol-3-yl)phenyl)benzenesulfonamide]
CC(C)n1cnnc1-c1cc(Cl)c(F)cc1NS(=O)(=O)c1ccc(C(C)(C)C)cc1 [Compound 78, 4-tert-butyl-N-(4-chloro-5-fluoro-2-(4-isopropyl-4H-1,2,4-triazol-3-yl)phenyl)benzenesulfonamide]
Cc1ocnc1-c1nnc(-c2cc(Cl)c(F)cc2NS(=O)(=O)c2ccc(C(C)(C)C)cc2)n1C [Compound 79]
Cc1nnc(-c2cc(Cl)c(F)cc2NS(=O)(=O)c2ccc(C(C)(C)C)cc2)n1C1CCOC1 (stereo not drawn) [Compound 80]
CC(C)c1nnc(-c2cc(Cl)c(F)cc2NS(=O)(=O)c2ccc(C(C)(C)C)cc2)n1C1CCOC1 (stereo not drawn) [Compound 81]
CC(C)n1c(-c2cc(Cl)c(F)cc2NS(=O)(=O)c2ccc(C(C)(C)C)cc2)nnc1C1CCOC1 (stereo not drawn) [Compound 82]
Cc1nnc(-c2cc(Cl)ccc2NS(=O)(=O)c2ccc(C(C)(C)C)cc2)n1CCN [Compound 83, N-(2-(4-(2-aminoethyl)-5-methyl-4H-1,2,4-triazol-3-yl)-4-chlorophenyl)-4-tert-butylbenzenesulfonamide]
Cc1nnc(-c2cc(Cl)ccc2NS(=O)(=O)c2ccc(C(C)(C)C)cc2)n1C1CCC1 [Compound 84, 4-tert-butyl-N-(4-chloro-2-(4-cyclobutyl-5-methyl-4H-1,2,4-triazol-3-yl)phenyl)benzenesulfonamide]
CC(C)(C)c1ccc(S(=O)(=O)Nc2cc(F)c(Cl)cc2-c2nncn2C2CNC2)cc1 [Compound 85]
CC(C)n1c(-c2cc(Cl)ccc2NS(=O)(=O)c2ccc(C(C)(C)C)cc2)nnc1C(F)(F)F [Compound 86, 4-tert-butyl-N-(4-chloro-2-(4-isopropyl-5-(trifluoromethyl)-4H-1,2,4-triazol-3-yl)phenyl)benzenesulfonamide]
CCn1c(-c2cc(Cl)c(F)cc2NS(=O)(=O)c2ccc(C(C)(C)C)cc2)nnc1C(C)C [Compound 87, 4-tert-butyl-N-(4-chloro-2-(4-ethyl-5-isopropyl-4H-1,2,4-triazol-3-yl)-5-fluorophenyl)benzenesulfonamide]
CCc1nnc(-c2cc(Cl)c(F)cc2NS(=O)(=O)c2ccc(C(C)(C)C)cc2)n1[C@H]1CCNC1 [Compound 88]
Cn1c(CCS(C)(=O)=O)nnc1-c1cc(Cl)c(F)cc1NS(=O)(=O)c1ccc(C(C)(C)C)cc1 [Compound 89, 4-tert-butyl-N-(4-chloro-5-fluoro-2-(4-methyl-5-(2-(methylsulfonyl)ethyl)-4H-1,2,4-triazol-3-yl)phenyl)benzenesulfonamide]
CC(C)(C)c1ccc(S(=O)(=O)Nc2cc(F)c(Cl)cc2-c2nncn2[C@H]2CCNC2=O)cc1 [Compound 90]
CC(=O)N1CCC(n2c(C)nnc2-c2cc(Cl)ccc2NS(=O)(=O)c2ccc(C(C)(C)C)cc2)CC1 [Compound 91]
CC(C)n1c(N)nnc1-c1cc(Cl)ccc1NS(=O)(=O)c1ccc(C(C)(C)C)cc1 [Compound 92, N-(2-(5-amino-4-isopropyl-4H-1,2,4-triazol-3-yl)-4-chlorophenyl)-4-tert-butylbenzenesulfonamide]
Cc1nnc(-c2cc(Cl)ccc2NS(=O)(=O)c2ccc(C(C)(C)C)cc2)n1C1CCN(S(C)(=O)=O)CC1 [Compound 93]
Cc1nnc(-c2cc(Cl)ccc2NS(=O)(=O)c2ccc(C(C)(C)C)cc2)n1C1CCN(C(N)=O)CC1 [Compound 94]
Cc1nnc(-c2ccc(Cl)cc2NS(=O)(=O)c2ccc(C(C)(C)C)cc2)n1C(C)C [Compound 95, 4-tert-butyl-N-(5-chloro-2-(4-isopropyl-5-methyl-4H-1,2,4-triazol-3-yl)phenyl)benzenesulfonamide]
COCc1nnc(-c2cc(Cl)ccc2NS(=O)(=O)c2ccc(C(C)(C)C)cc2)n1C(C)C [Compound 96, 4-tert-butyl-N-(4-chloro-2-(4-isopropyl-5-(methoxymethyl)-4H-1,2,4-triazol-3-yl)phenyl)benzenesulfonamide]
Cn1c(-c2ccccn2)nnc1-c1cc(Cl)ccc1NS(=O)(=O)c1ccc(C(C)(C)C)cc1 [Compound 97, 4-tert-butyl-N-(4-chloro-2-(4-methyl-5-(pyridin-2-yl)-4H-1,2,4-triazol-3-yl)phenyl)benzenesulfonamide]
CC(C)n1c(CN(C)C)nnc1-c1cc(Cl)ccc1NS(=O)(=O)c1ccc(C(C)(C)C)cc1 [Compound 98, 4-tert-butyl-N-(4-chloro-2-(5-((dimethylamino)methyl)-4-isopropyl-4H-1,2,4-triazol-3-yl)phenyl)benzenesulfonamide]
Cc1nnc(-c2cc(Cl)ccc2NS(=O)(=O)c2ccc(C(C)(C)C)cc2)n1C1CCNC1 (stereo not drawn) [Compound 99]
Cc1nnc(-c2cc(F)c(F)cc2NS(=O)(=O)c2ccc(C(C)(C)C)cc2)n1C [Compound 100, 4-tert-butyl-N-(2-(4,5-dimethyl-4H-1,2,4-triazol-3-yl)-4,5-difluorophenyl)benzenesulfonamide]
Cc1nnc(-c2cc(Cl)ccc2NS(=O)(=O)c2ccc(C(C)(C)C)cc2)n1C1CCOC1 (stereo not drawn) [Compound 101]
Cn1c(-c2cc(Cl)ccc2NS(=O)(=O)c2ccc(C(C)(C)C)cc2)nnc1C1CCCO1 (stereo not drawn) [Compound 102]
CC(C)OCc1nnc(-c2cc(Cl)ccc2NS(=O)(=O)c2ccc(C(C)(C)C)cc2)n1C [Compound 103, 4-tert-butyl-N-(4-chloro-2-(5-(isopropoxymethyl)-4-methyl-4H-1,2,4-triazol-3-yl)phenyl)benzenesulfonamide]
CC(C)(C)c1ccc(S(=O)(=O)Nc2ccc(Cl)cc2-c2nncn2[C@H]2CCCOC2)cc1 [Compound 104]
CCc1nnc(-c2cc(Cl)ccc2NS(=O)(=O)c2ccc(C(C)(C)C)cc2)n1C [Compound 105, 4-tert-butyl-N-(4-chloro-2-(5-ethyl-4-methyl-4H-1,2,4-triazol-3-yl)phenyl)benzenesulfonamide]
Cc1nnc(-c2cc(Cl)c(F)cc2NS(=O)(=O)c2ccc(C(C)(C)C)cc2)n1[C@H]1CCNC1 [Compound 106]
COCc1nnc(-c2cc(Cl)c(F)cc2NS(=O)(=O)c2ccc(C(C)(C)C)cc2)n1C [Compound 107, 4-tert-butyl-N-(4-chloro-5-fluoro-2-(5-(methoxymethyl)-4-methyl-4H-1,2,4-triazol-3-yl)phenyl)benzenesulfonamide]
CC(C)(C)c1ccc(S(=O)(=O)Nc2cc(F)c(Cl)cc2-c2nncn2C2CCCOC2)cc1 (stereo not drawn) [Compound 108]
CC(C)(C)c1ccc(S(=O)(=O)Nc2cc(F)c(Cl)cc2-c2nncn2[C@H]2CCNC2)cc1 [Compound 109]
CCc1nnc(-c2cc(Cl)c(F)cc2NS(=O)(=O)c2ccc(C(C)(C)C)cc2)n1C [Compound 110, 4-tert-butyl-N-(4-chloro-2-(5-ethyl-4-methyl-4H-1,2,4-triazol-3-yl)-5-fluorophenyl)benzenesulfonamide]
Cn1c(-c2cocn2)nnc1-c1cc(Cl)c(F)cc1NS(=O)(=O)c1ccc(C(C)(C)C)cc1 [Compound 111]
CC(C)(C)c1ccc(S(=O)(=O)Nc2cc(F)c(Cl)cc2-c2nncn2[C@H]2CCCNC2)cc1 [Compound 112]
CC(C)(C)c1ccc(S(=O)(=O)Nc2ccc(Cl)cc2-c2nncn2[C@H]2CCCNC2)cc1 [Compound 113]
Cc1nnc(-c2cc(Cl)ccc2NS(=O)(=O)c2ccc(C(C)(C)C)cc2)n1[C@H]1CCCNC1 [Compound 114]
Cn1c(-c2cc(Cl)c(F)cc2NS(=O)(=O)c2ccc(C(C)(C)C)cc2)nnc1C1CCOC1 (stereo not drawn) [Compound 115]
Cn1c(-c2cc(Cl)c(F)cc2NS(=O)(=O)c2ccc(C(C)(C)C)cc2)nnc1C1CCOCC1 [Compound 116]
Cc1ocnc1-c1nnc(-c2cc(Cl)ccc2NS(=O)(=O)c2ccc(C(C)(C)C)cc2)n1C [Compound 117]
